Assay results from PMC10226041, “Discovery of Ruthenium(II) Metallocompound and Olaparib Synergy for Cancer Combination Therapy” (Journal of Medicinal Chemistry, 2023).
Structures can show the parent of a compound that is named as a salt.

Assays:
MDA-MB-231 cells [1] = experiment: MTT cell viability assay, MDA-MB-231 cells; type: cell-based, human; conditions: for IC50 / fold shift = IC50 (−OLAP)/IC50 (+OLAP): MDA-MB-231, 72 h; for IC50: MTT, read-out: IC50, –OLAP (compound alone); for fold shift = IC50 (−OLAP)/IC50 (+OLAP): Olaparib 10 μM
Protocol: (§1) Following treatment, solutions were removed, thiazolyl blue tetrazolium bromide (MTT, 0.5 mg/mL) reagent was added to the cells, and plates were incubated for 4 h. The reduced purple formazan crystals were solubilized with 100 μL of DMSO, and the absorbance at 570 nm (620 nm as reference wavelength) was measured using a microplate reader. The average in percent reduction of cell viability was expressed relative to untreated control cells. The combinatorial effect was evaluated by the generation of the compound dose–response curve and a shift of the IC50 value in the presence or absence of Olaparib (graphed and calculated using GraphPad Prism software).

[2] = octanol/water partition coefficient; source not given; cited from earlier work
MDA-MB-231 cells [3] = experiment: Drug interaction analysis (Chou and Talalay combination index) with Olaparib from MTT data; type: cell-based, human; conditions: MDA-MB-231, Olaparib 10 μM, result in words
Protocol: as §1
Dose–effect curves for single agents and their combinations were generated from the MTT assay data, and the combination index (CI) values were calculated using CalcuSyn and CompuSyn software (Biosoft, Cambridge, UK) as established by Chou and Talalay.[43] CI < 0.9 indicates synergism, CI = 0.9–1.0 indicates additive, and CI > 1 indicates antagonism. GraphPad Prism Software was used to generate a 3-color scale based on CI values obtained, where synergism is represented by green, additive by yellow, and antagonism by red. The colors of each CI value were interpolated in between these constraints accordingly.

MCF10A cells = experiment: MTT cell viability assay, MCF10A normal breast cells; type: cell-based; conditions: Homo sapiens, MCF-10A, 72 h, single agent, read-out: IC50 MCF10A, –OLAP (single agent)
Protocol: as §1, with “Cells were seeded at 5 × 10^3 cells/well for MCF7 cells and 1 × 10^4 cells/well for MDA-MB-231 and MCF10A cells, respectively, in 96-well plates, allowed to adhere for 24 h, and treated as described in the main text. Following” for “Following”

MCF7 3D tumor spheroids = experiment: Spheroid growth inhibition, MCF7 spheroids; type: cell-based, human; conditions: compound 1 μM in combination with Olaparib 10 μM
Protocol: (§2) Spheroids were grown as described initially. […] Spheroids were treated with the identified combinations and single drugs alone for 72 h. Every other day thereafter, 50% of the treatment-containing medium was replaced. Spheroids were imaged every three days for a period of 12 days using a microscope attached to a digital camera. The structural integrity of spheroids following treatments was observed, and the volume was measured as initially described.

[4] = test system: wild-type zebrafish (Danio rerio) embryos; conditions: in vivo
Protocol: Wild-type zebrafish embryos were obtained from breeding facilities at Danio Assay Laboratories Sdn.Bhd. (Universiti Putra Malaysia). […] Danio-SprintM embryo media were used as a control. Survival and hatching rates were observed under a microscope attached with a digital camera and imaged at 24, 48, 72, and 96 hpf. […] Four lethal endpoints were evaluated including coagulated embryos, lack of somite formation, non-detachment of the tail, and lack of heartbeat. All these characteristics were recorded every 24 hpf, except the heartbeat, which is visible after 48 hpf.

MCF7 cells [5] = experiment: MTT cell viability assay, MCF7 cells; type: cell-based, human; conditions: for IC50: Homo sapiens, MCF7, 72 h, MTT, single agent, read-out: IC50 MCF7, –OLAP (single agent)
Protocol: as §1, with “Cells were seeded at 5 × 10^3 cells/well for MCF7 cells and 1 × 10^4 cells/well for MDA-MB-231 and MCF10A cells, respectively, in 96-well plates, allowed to adhere for 24 h, and treated as described in the main text. Following” for “Following”

[6] = test system: MDA-MB-231 3D tumor spheroids; experiment: Spheroid growth inhibition, MDA-MB-231 spheroids; type: cell-based, human; conditions: compound 1 μM in combination with Olaparib 10 μM
Protocol: as §2

MDA-MB-231R cells = experiment: Clonogenic survival assay, Olaparib-resistant MDA-MB-231R cells; type: cell-based, human
Protocol: The Olaparib-resistant MDA-MB-231 cell line (MDA-MB-231R) was developed from the parental MDA-MB-231 cell line by long-term drug exposure (∼8 months, 10–100 μM Olaparib) in a similar manner described by Kim et al.[45] MDA-MB-231 cells were seeded at a density of 1.5 × 10^5 cells in a 25 cm^2 flask and allowed to adhere for 24 h. Cells were treated with a starting Olaparib concentration of 10 μM, and treatments were refreshed every 3 days. After each week, the confluency was assessed: if confluency is <50%, the treatment was stopped; if confluency is at 50–70%, the treatment was maintained; and if confluency is over 70%, a portion of the cells was frozen. When the cells adapted to a new drug concentration, cells were reseeded at a density of 1.5 × 10^5 cells in a new 25 cm^2 flask and allowed to adhere before the next exposure to the increased concentration of Olaparib. This procedure was repeated to achieve a final concentration of Olaparib of 100 μM. Following this, MDA-MB-231R cells were maintained in a low concentration of Olaparib (10 μM) to preserve resistance. […]
Cells were seeded at 1 × 10^3 cells/well in 6-well plates, allowed to adhere for 24 h, and treated as described in the main text. […] Individual colonies were counted using ImageJ software, and the survival fraction was determined (normalized to controls).

MCF7 cells [7] = experiment: Clonogenic survival assay, MCF7 cells; type: cell-based; conditions: Homo sapiens, 72 h treatment, read-out: IC50 values of OLAP, – Compound
Protocol: (§3) Cells were seeded at 1 × 10^3 cells/well in 6-well plates, allowed to adhere for 24 h, and treated as described in the main text. After treatment, solutions were removed, and cells were cultured in compound-free medium for 7–10 days to allow colony formation. Cells were then washed (1× PBS, twice), fixed (ice-cold 100% methanol, 15–20 min, 4 °C), and stained (0.5% crystal violet solution, 20 min). The staining solution was washed with water, and images were photographed with a digital camera. Individual colonies were counted using ImageJ software, and the survival fraction was determined (normalized to controls).

MDA-MB-231 cells [8] = conditions: 72 h, 10 µM
Protocol: Cells were seeded at 3 × 10^5 cells/well in 6-well plates, allowed to adhere for 24 h, and treated as described in the main text. After treatment, cells were trypsinized and washed with 1× PBS twice. This was followed by the addition of 500 μL of 1× binding buffer and 5 μL of Annexin V-FITC (Invitrogen). The cell-containing mixture was incubated for 20 min at RT. A total of 5 μL of PI (20 μg/mL) was added prior to flow cytometric analysis using a flow cytometer, and results were analyzed using NovoExpress software. For each sample, a minimum of 10,000 cells were counted.

MDA-MB-231 cells [9] = experiment: Clonogenic survival assay, MDA-MB-231 cells; type: cell-based; conditions: Homo sapiens; MDA-MB-231, clonogenic, 72 h treatment; read-out: IC50 values of OLAP, – Compound
Protocol: as §3

[10] = test system: TNBC and lung cancer cells; parameters: method as in PMID 31898884, PMID 36702871; conditions: sub-cytotoxic concentrations of Ru-PIP; cited from earlier work

Q: With `CNCc1ccc(-c2cc(-c3nc(-c4ccc(S(=O)(=O)C(C)C)cc4)cnc3N)on2)cc1` [Berzosertib, reference compound] as the molecule, how does the IC50 (MDA-MB-231 cells [1]; Homo sapiens, single agent) read?
A: 0.46 ± 0.01 µM

Q: And the “fold shift = IC50 (−OLAP)/IC50 (+OLAP)” value (MDA-MB-231 cells [1])?
A: 1.7

Q: And the “Log P” value [2]?
A: 3.16

Q: Which results are given for `C[C@@H]1COCCN1c1cc(C2([S@](C)(=N)=O)CC2)nc(-c2cc[nH]c3nccc2-3)n1` [Ceralasertib, reference compound]?
A: IC50 (MDA-MB-231 cells [1]; Homo sapiens, single agent): 4.4 ± 0.4 µM; fold shift = IC50 (−OLAP)/IC50 (+OLAP) (MDA-MB-231 cells [1]): 0.9; Log P [2]: 1.91

Q: For `[Ru+2].c1ccc(-c2ccccn2)nc1.c1ccc(-c2ccccn2)nc1.c1ccc(-c2nc3c4cccnc4c4ncccc4c3[nH]2)cc1` [Compound 1, [Ru(bpy)2(PIP)]^2+], which IC50 (MDA-MB-231 cells [1]; single agent) is on record?
A: > 100 µM

Q: What about the “fold shift = IC50 (−OLAP)/IC50 (+OLAP)” value (MDA-MB-231 cells [1]) of the same molecule?
A: >1.3

Q: Which results are given for `c1ccc(-c2nc3c4ccc[n+]5c4c4c(ccc[n+]4[Ru-4]546([n+]5cccc7ccc8ccc[n+]4c8c75)[n+]4cccc5ccc7ccc[n+]6c7c54)c3[nH]2)cc1` [Compound 3, [Ru(phen)2(PIP)]^2+]?
A: IC50 (MDA-MB-231 cells [1]; single agent): 29.2 ± 3.7 µM; fold shift = IC50 (−OLAP)/IC50 (+OLAP) (MDA-MB-231 cells [1]): 3.7; Synergy with Olaparib (CI scores of less than 0.9 considered synergistic) (MDA-MB-231 cells [3]): additive relationship with Olaparib

Q: With `Oc1ccc(-c2nc3c4ccc[n+]5c4c4c(ccc[n+]4[Ru-4]546([n+]5cccc7ccc8ccc[n+]4c8c75)[n+]4cccc5ccc7ccc[n+]6c7c54)c3[nH]2)cc1` [Compound 4, [Ru(phen)2(H-PIP)]^2+] as the molecule, how does the IC50 (MDA-MB-231 cells [1]; single agent) read?
A: 11.6 ± 3.2 µM

Q: What about the “fold shift = IC50 (−OLAP)/IC50 (+OLAP)” value (MDA-MB-231 cells [1]) of the same molecule?
A: 6.8

Q: And the “Synergy with Olaparib (CI scores of less than 0.9 considered synergistic)” value (MDA-MB-231 cells [3])?
A: additive relationship with Olaparib

Q: For `Cc1cc(C)c2nc3c4ccc[n+]5c4c4c(ccc[n+]4[Ru-4]546([n+]5ccccc5-c5cccc[n+]54)[n+]4ccccc4-c4cccc[n+]46)c3nc2c1` [Compound 5, [Ru(bpy)2(dmdppz)]^2+], which IC50 (MDA-MB-231 cells [1]; single agent) is on record?
A: 75.1 ± 12.2 µM

Q: What about the “fold shift = IC50 (−OLAP)/IC50 (+OLAP)” value (MDA-MB-231 cells [1]) of the same molecule?
A: <0.8

Q: With `Cc1cc(C)c2nc3c4ccc[n+]5c4c4c(ccc[n+]4[Ru-4]546([n+]5cc(C)ccc5-c5ccc(C)c[n+]54)[n+]4cc(C)ccc4-c4ccc(C)c[n+]46)c3nc2c1` [Compound 6, [Ru(5,5′dmb)2(dmdppz)]^2+] as the molecule, how does the IC50 (MDA-MB-231 cells [1]; single agent) read?
A: 87.4 ± 2.3 µM

Q: And the “fold shift = IC50 (−OLAP)/IC50 (+OLAP)” value (MDA-MB-231 cells [1])?
A: 5.0

Q: With `Cc1cc[n+]2c(c1)-c1cc(C)cc[n+]1[Ru-4]213([n+]2ccc(C)cc2-c2cc(C)cc[n+]21)[n+]1cccc2c4nc5cc(C)cc(C)c5nc4c4ccc[n+]3c4c21` [Compound 7, [Ru(4,4′dmb)2(dmdppz)]^2+] as the molecule, how does the IC50 (MDA-MB-231 cells [1]; single agent) read?
A: 34.3 ± 0.5 µM

Q: What about the “fold shift = IC50 (−OLAP)/IC50 (+OLAP)” value (MDA-MB-231 cells [1]) of the same molecule?
A: 2.3

Q: What about the “Synergy with Olaparib (CI scores of less than 0.9 considered synergistic)” value (MDA-MB-231 cells [3]) of the same molecule?
A: additive relationship with Olaparib

Q: Which results are given for `COc1cc(/C=C/C(=O)CC(=O)/C=C/c2ccc(O)c(OC)c2)ccc1O` [Curcumin, reference compound]?
A: IC50 (MCF10A cells): 37.4 ± 6 µM; IC50 (MDA-MB-231 cells [1]; Homo sapiens, single agent): 25.1 ± 2.4 µM; day of complete disintegration of spheroids (MCF7 3D tumor spheroids): 9 days; hatching rate [4]: neither 10 nor Curcumin impacted the hatching rate significantly; Synergy with Olaparib (CI scores of less than 0.9 considered synergistic) (MDA-MB-231 cells [3]): synergistic over most of the tested concentrations; Log P [2]: 4.12; IC50 (MCF7 cells [5]): 22.5 ± 4.1 µM; day of complete disintegration of spheroids [6]: 6 days; inhibition of colony formation (MDA-MB-231R cells; MDA-MB-231R, compound 1 μM alongside Olaparib 0.1–100 μM, 72 h): retains the ability to inhibit colony formation in a similar manner to the parental MDA-MB-231 cells

Q: With `O=c1[nH]cc(F)c(=O)[nH]1` [Fluorouracil, reference compound] as the molecule, how does the IC50 (MDA-MB-231 cells [1]; Homo sapiens, single agent) read?
A: 12.1 ± 3 µM

Q: With `Cc1nc2c(O)cccc2c(=O)[nH]1` [NU1025] as the molecule, how does the “Log P” value [2] read?
A: 0.47

Q: Which results are given for `O=C(c1cc(Cc2n[nH]c(=O)c3ccccc23)ccc1F)N1CCN(C(=O)C2CC2)CC1` [Olaparib]?
A: IC50 (MCF10A cells): > 100 µM; IC50 (MDA-MB-231 cells [1]; Homo sapiens, single agent): 80.9 ± 15 µM; SI MDA-MB-231 (IC50 MCF10A/IC50 cancer cell line), single agent (MDA-MB-231 cells [1]; single agent, 72 h): >1.2; IC50 (MCF7 cells [7]): 2.72 ± 0.45 µM; pericardial edema (PE) ([4]; 96 hpf, 25 mg/L): 45.8% ± 17.7; spinal deformity (SD) ([4]; 96 hpf, 25 mg/L): 75.0% ± 23.6; yolk sac edema (YSE) ([4]; 96 hpf, 25 mg/L): 45.8% ± 29.5; percentage of cells in quadrant Q3-1 (MDA-MB-231 cells [8]): 0.34%; percentage of cells in quadrant Q3-2 (apoptotic) (MDA-MB-231 cells [8]): 1.44%; percentage of cells in quadrant Q3-3 (MDA-MB-231 cells [8]): 82.66%; percentage of cells in quadrant Q3-4 (apoptotic) (MDA-MB-231 cells [8]): 15.56%; IC50 (MDA-MB-231 cells [9]): > 10 µM; SI MCF7 (IC50 MCF10A/IC50 cancer cell line), single agent (MCF7 cells [5]; 72 h): >1.4; IC50 (MCF7 cells [5]): 69.6 ± 6.3 µM; level of resistance of MDA-MB-231R compared to parental MDA-MB-231 cells (MDA-MB-231R cells; clonogenic survival assay): 28 fold

Q: With `O=c1c(O)c(-c2ccc(O)c(O)c2)oc2cc(O)cc(O)c12` [Quercetin, reference compound] as the molecule, how does the IC50 (MDA-MB-231 cells [1]; Homo sapiens, single agent) read?
A: > 100 µM

Q: For `[Ru+2].c1ccc(-c2nc3c4cccnc4c4ncccc4c3[nH]2)cc1.c1ccc2nc3c4cccnc4c4ncccc4c3nc2c1.c1ccc2nc3c4cccnc4c4ncccc4c3nc2c1` [Ru-PIP, [Ru(dppz)2(PIP)]^2+], which “increase in Olaparib potency” value [10] is on record?
A: > 300 fold

Q: Which IC50 (MDA-MB-231 cells [1]; single agent) does the source give for `N.N.[Cl][Pt][Cl]` [cisplatin, reference compound] here?
A: 35.3 ± 5.5 µM

Q: Which results are given for `Nc1ccn([C@@H]2O[C@H](CO)[C@@H](O)C2(F)F)c(=O)n1` [gemcitabine hydrochloride, reference compound]?
A: IC50 (MDA-MB-231 cells [1]; Homo sapiens, single agent): 1.6 ± 0.8 µM; fold shift = IC50 (−OLAP)/IC50 (+OLAP) (MDA-MB-231 cells [1]): 2.7
